# Laboratory results: patent publication US20190151229A1, “USE OF AN ESSENTIAL OIL OF EVERLASTING FLOWER IN ORDER TO INCREASE OR RESTORE TACTILE PERCEPTION” (LABORATOIRES M&L, priority 2016, published 2019)
# Tested on: human sensory neurons
# Assay: Effect on neurite growth in co-culture of human sensory neurons and keratinocytes
# Format: cell-based
# Settings: NGF at 50 ng/ml, 6 days, vs control medium, p<0.05
# Protocol: Sensory neurons are derived from iPS cells (induced Pluripotent Stem cells) which are themselves obtained from human fibroblasts. The iPSs were seeded into six-well plates coated with a thin layer of Matrigel® (Corning) in a proportion of 250 000 cells per well in a differentiation medium consisting of DMEM-F12 (Panbiotech) supplemented with 10% of Knockout Serum Replacement (KSR, Life technologies), 5 μM of CHIR 99021 (Tocris), 0.1 μM of retinoic acid (Sigma), 1 μg/ml of EPO (Erythropoietin; Peprotech), a cocktail of central differentiation pathway inhibitors and 1% of PS antibiotics (Penicilin-Streptomycin; Panbiotech). The cells were maintained in culture for 6 days at 37° C. and 5% CO2. The culture medium was changed every 2 days. Under these culture conditions, the iPSs differentiate into human sensory neurons.
# At this stage, the cells were dissociated using accutase (Sigma Aldrich) for 10 minutes at 37° C. The reaction was stopped by adding culture medium. The cell suspension was centrifuged for 5 minutes at 1200 rpm. […]
# Twenty photographs per culture well were taken with the automatic microscope (InCell 2000; GE Healthcare) at a ×20 magnification and the cell bodies of the sensory neurons were counted. […]
substance,measurement,value
"NGF: reference molecule; nerve growth factor, naturally present in the epithelium, known to stimulate neurite extension in vitro",increase in the length of the projections of the human sensory neurons,+22.8%
